Measurements from article PMC6669887 (Analytical chemistry, 2019).

System: A2AR
Experiment: Affinity MS assay/screen with purified immobilized receptor
Type: binding
Details: 480-mix cocktails

CCNC(=O)[C@H]1O[C@@H](n2cnc3c(NCC(c4ccccc4)c4ccccc4)nc(C(=O)NCCNC(=O)NC4CCN(c5ccccn5)CC4)nc32)[C@H](O)[C@@H]1O [UK-432,097]
hit detection/selection in 480-mix screens: detected in all cocktails
